Assay results as given in patent US20130023534A1, “PYRAZOLYL-PYRIMIDINES AS KINASE INHIBITORS” (priority 2010, published 2013).

Molecular target: T1, RIPK2 (Homo sapiens, UniProt O43353)
T1 construct: Full length FLAG His tagged RIPK2 was purified from a Baculovirus expression system; FLAG (N); 6His (N); made in house; host or cells: Spodoptera frugiperda (Sf9) insect cells, baculovirus
Assay: Fluorescent polarization based binding assay at the ATP binding pocket of RIPK2
Settings: full length FLAG His tagged RIPK2; competition with fluorescently labeled ATP competitive ligand (5 nM); mean of a minimum of 2 experiments; read-out: mean pIC50 (converted)
From the text: A fluorescent polarization based binding assay was developed to quantitate interaction of novel test compounds at the ATP binding pocket of RIPK2, by competition with a fluorescently labeled ATP competitive ligand. Full length FLAG His tagged RIPK2 was purified from a Baculovirus expression system and was used at a final assay concentration of twice the KDapparent. A fluorescent labeled ligand (5-({[2-({[3-({4-[(5-hydroxy-2-methylphenyl)amino]-2-pyrimidinyl}amino)phenyl]carbonyl}amino)ethyl]amino}carbonyl)-2-(6-hydroxy-3-oxo-3H-xanthen-9-yl)benzoic acid, prepared as described below) was used at a final assay concentration of 5 nM. Both the enzyme and ligand were prepared in solutions in 50 mM HEPES pH7.5, 150 mM NaCl, 10 mM MgCl2, 1 mM DTT, and 1 mM CHAPS. Test compounds were prepared in 100% DMSO and 100 nL was dispensed to individual wells of a multiwell plate. Next, 5 ul RIPK2 was added to the test compounds at twice the final assay concentration, and incubated at room temperature for 10 minutes. […] Finally, samples were read on an instrument capable of measuring fluorescent polarization. Test compound inhibition was expressed as percent (%) inhibition of internal assay controls.
For concentration response experiments, normalized data were fit and pIC50s determined using conventional techniques. […]

T1 sequence (O43353 whole entry): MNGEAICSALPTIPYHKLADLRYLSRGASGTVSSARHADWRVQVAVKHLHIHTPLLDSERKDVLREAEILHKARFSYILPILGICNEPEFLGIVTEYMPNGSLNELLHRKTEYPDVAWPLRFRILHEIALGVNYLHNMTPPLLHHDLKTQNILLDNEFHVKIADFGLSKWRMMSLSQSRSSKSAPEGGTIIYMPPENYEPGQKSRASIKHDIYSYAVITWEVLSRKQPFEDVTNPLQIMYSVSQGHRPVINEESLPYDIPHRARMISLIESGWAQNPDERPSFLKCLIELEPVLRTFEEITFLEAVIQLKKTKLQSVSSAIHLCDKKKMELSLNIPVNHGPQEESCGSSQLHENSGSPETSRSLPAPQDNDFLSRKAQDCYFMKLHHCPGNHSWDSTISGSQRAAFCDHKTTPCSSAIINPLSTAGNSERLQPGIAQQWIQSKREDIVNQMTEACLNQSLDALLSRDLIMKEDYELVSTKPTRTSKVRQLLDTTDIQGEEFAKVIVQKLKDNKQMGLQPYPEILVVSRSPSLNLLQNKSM

| IC50 [nM] | SMILES |
| --- | --- |
| 10 | COc1cc(Nc2nccc(Nc3[nH]nc(C)c3C)n2)cc(OC)c1OC [Example 1, N^4-(3,4-Dimethyl-1H-pyrazol-5-yl)-N^2-[3,4,5-tris(methyloxy)phenyl]-2,4-pyrimidinediamine] |
| 251 | COc1ccc(-n2nc(C(F)(F)F)cc2Nc2ccnc(Nc3ccc(OC)c(OC)c3)n2)cc1 [Example 21, N^2-[3,4-bis(methyloxy)phenyl]-N^4-[1-[4-(methyloxy)phenyl]-3-(trifluoromethyl)-1H-pyrazol-5-yl]-2,4-pyrimidinediamine] |
